Experiment [1] addresses Human immunodeficiency virus type 1 reverse transcriptase (Human immunodeficiency virus 1) (UniProt Q72547). Kind of experiment: Tested for percent inhibition of the human immunodeficiency virus (HIV) reverse transcriptase in MT-4. Format: functional.
The subject of experiment [2] is MT4. Kind of experiment: Anti HIV-l activity in infected MT-4 cells cultures; NA is NO Activity. It counts as functional, cell-based. As to conditions: Homo sapiens.
In experiment [3] the test system is MT4. The experiment in a line: Anti HIV-l activity in infected MT-4 cells cultures. Format: functional. As to conditions: Homo sapiens, read-out: ED50 (the source's name).
For experiment [4], the target named is Human immunodeficiency virus type 1 reverse transcriptase (Human immunodeficiency virus 1) (UniProt Q72547). Kind of experiment: In vitro effective dose for the inhibition of human immunodeficiency virus (HIV) reverse transcriptase in MT-4 and peripheral lymphocyte (PBL) cell cultures; NI is No Inhibition up to a concentration of 100 uM. It counts as functional.

Experiment [5] deals with MT4. Kind of experiment: Activity in HIV-l infected MT-4 cells cultures; No activity. It counts as functional, cell-based. As to conditions: Homo sapiens.

SMILES strings stand for the structures. pEC50: −log10 of the molar value. Active and inactive are the calls of the source. The rule behind the calls is not given here.

`Nc1ccn(C/C=C\COCP(=O)(O)OP(=O)(O)OP(=O)(O)O)c(=O)n1` showed an ED50 in experiment [1] of 50 µM.
For `Cc1cn(C/C=C\COCP(=O)(O)O)c(=O)[nH]c1=O`, the ED50 entry with MT4 [2] was “inactive”.
The same measure, in the same setting: under `Nc1nc(O)c2ncn(C/C=C\COCP(=O)(O)O)c2n1` stands “inactive”.
Regarding `Nc1ncnc2c1ncn2C/C=C\COCP(=O)(O)O`, in the experiment on MT4 [3], the pEC50 is 5.05.
As for `Nc1ncnc2c1ncn2C/C=C\CCOP(=O)(O)OP(=O)(O)OP(=O)(O)O`, the ED50 entry in experiment [4] was “No inhibition”.
As for `Nc1ccn(C/C=C\COCP(=O)(O)O)c(=O)n1`, the ED50 result in the experiment on MT4 [2] is “inactive”.
As for `Nc1ncnc2c1ncn2C/C=C\CO`, in the experiment with MT4 [5], the ED50 entry is “inactive”.

The values are drawn from ChEMBL document CHEMBL1127390, “Novel acyclic nucleotides and nucleoside 5'-triphosphates imitating 2',3'-dideoxy-2',3'-didehydronucleotides: synthesis and biological properties” (1994).
